Laboratory results reported in US20090312414A1, “Treatment Of Lower Urinary Tract Dysfunction With CB2-Receptor-Selective Agonists” (priority 2008, published 2009).

Assays:
CB1 receptor = CB1 receptor (Homo sapiens, UniProt P21554); assay: biochemical; assay type: binding; details: displaces 50% of a radiolabeled agonist
CB2 receptor = CB2 receptor (Homo sapiens, UniProt P34972); assay: CB2 binding assay (displacement of radiolabeled agonist)
[1] = Actual solubility in aqueous buffers; assay type: physicochemical; details: aqueous buffer
Experimental: The actual solubility of certain compounds of the invention was assessed in aqueous buffers and final concentration of compounds was determined using HPLC and spectrophotometer methodologies.

[2] = test system: conscious rats with partial urethral obstruction; assay: Cystometry in conscious rats with partial urethral obstruction (PUO); assay type: in vivo, rat; details: 3 mg/kg IP daily for 2 weeks
From the text: The effect of chronic treatment with the compound of Formula I on bladder function was studied by cystometry in conscious rats with partial urethral obstruction (“PUO”) after 2 weeks of treatment with the compound of Formula I. Protocols for animals and bladder catheter implantation were as in Example 4 above.
The bladder and urethra was exposed via a mid-line incision of the lower abdom. A 19 gauge needle (0.9 mm OD) was placed on the surface of the urethra, and a 3-0 black mono nylon suture was firmly tied over the urethra and the ligation was left in place for the duration of the study. The needle was then removed and the diameter and position of the ligature was then inspected to ensure that a partial urethral obstruction was obtained. The abdominal cavity was then closed in layers with single cross-sutures (5-0 black polyfilament nylon suture). Animals were then housed in individual cages for two weeks before cystometry were performed.
The appropriate solution of the compound of Formula I was prepared on the day of the experiment using PBS as the vehicle. A stock solution of 10 mg/ml in PBS was used and the animals were administered daily, weight-controlled doses of 3 mg/kg compound of Formula I or vehicle by intraperitoneal (“IP”) injection over the 2 week treatment period, starting on the day of PUO surgery.
Cystometry was performed without anesthesia three days after the implantation of bladder catheters in rats with PUO, and after two weeks of daily treatment with the compound of Formula I. The conscious rats were placed in metabolic cages without restraint and the bladder catheters were connected via a T-tube to a pressure transducer (P23 DC; Statham Instruments Inc., Oxnard, Calif.) and a microinjection pump (CMA 100; Carnegie Medicine AB, Solna, Sweden). Micturition volumes were recorded with a fluid collector connected to a force displacement transducer (FT 03 D, Grass Instrument Co., Quincy, Mass.). Room-temperature saline was infused into the bladder continuously at a rate of 10 ml/h. Bladder size increases several-fold in rats subjected to PUO. Therefore, an infusion rate of 20 ml/h was used during cystometry in these animals. Pressures and micturition volumes were recorded continuously with Acq Knowledge 3.8.1 software and a MP100 data acquisition system (Biopac Syst. Inc. Santa Barbara, Calif.) connected to a Grass polygraph (Model 7E, Grass Instrument Co). At the beginning of cystometry, the bladder was emptied via the bladder catheter.
The following urodynamic parameters were investigated: micturition pressure (“MP;” maximum bladder pressure during micturition), threshold pressure (“ThP”; bladder pressure at start of detrusor contraction), flow pressure (“FP”; bladder pressure when urethra opens), MI (time between two micturitions), micturition volume (“MV”; volume of the expelled urine), and RV (volume left in bladder after a micturition). At least a 30-minute period with stable and reproducible micturitions was recorded before drug administration and used as baseline value, to be compared with a corresponding stable 30-minute period after drug administration. For multiple comparisons, a one-way analysis of variance for repeated measures (Holm-Sidak) was used. Pairwise and non-pairwise comparisons were made by Student's t-test. All statistical calculations are based on the number of individual animals, and significant differences are accepted when p<0.05.
As used herein, the term “chronic” means that the animals were dosed once/day for 14 days, prior to taking the cystometry measurements. For specific investigation and analysis of NVCs, the PUO should beneficially be removed approximately 2-3 days prior to the urodynamic investigation. […]

Sequence of CB2 receptor (P34972 whole entry): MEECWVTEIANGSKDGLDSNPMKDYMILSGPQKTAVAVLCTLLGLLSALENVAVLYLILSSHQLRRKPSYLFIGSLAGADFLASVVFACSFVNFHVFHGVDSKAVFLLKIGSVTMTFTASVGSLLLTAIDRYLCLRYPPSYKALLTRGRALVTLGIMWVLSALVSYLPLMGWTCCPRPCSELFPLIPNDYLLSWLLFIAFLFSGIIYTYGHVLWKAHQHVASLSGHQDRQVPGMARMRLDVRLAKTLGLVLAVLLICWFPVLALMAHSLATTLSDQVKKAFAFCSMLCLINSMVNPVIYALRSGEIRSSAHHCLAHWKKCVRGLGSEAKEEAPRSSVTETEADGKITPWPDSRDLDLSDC
Sequence of CB1 receptor (P21554 whole entry): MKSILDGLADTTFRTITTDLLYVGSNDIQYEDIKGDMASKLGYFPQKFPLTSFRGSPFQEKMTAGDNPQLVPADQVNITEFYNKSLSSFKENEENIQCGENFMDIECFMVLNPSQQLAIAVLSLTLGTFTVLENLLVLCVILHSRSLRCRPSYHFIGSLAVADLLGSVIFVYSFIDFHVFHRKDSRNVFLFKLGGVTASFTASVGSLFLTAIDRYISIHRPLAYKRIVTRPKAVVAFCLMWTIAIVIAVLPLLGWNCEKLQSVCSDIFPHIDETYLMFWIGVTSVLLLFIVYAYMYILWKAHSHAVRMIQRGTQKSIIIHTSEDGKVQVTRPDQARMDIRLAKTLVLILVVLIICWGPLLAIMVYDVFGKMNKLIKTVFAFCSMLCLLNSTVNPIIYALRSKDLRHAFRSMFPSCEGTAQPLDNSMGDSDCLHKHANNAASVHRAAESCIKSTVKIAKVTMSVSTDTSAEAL

## CCCCCCC(C)(C)c1cc(O)c([C@H]2CC(=O)[C@H]3C[C@@H]2C3(C)C)c(OC(=O)/C=C/C(=O)O)c1 [Formula I]
CB1 receptor
  IC50: 660 nM
CB2 receptor
  CB2/CB1 affinity ratio: 34
CB2 receptor; displaces 50% of a radiolabeled agonist
  IC50: 19.4 nM
[1]
  solubility: > 10000 µg/mL
[2]; PUO rats
  Incidence of NVC: 20%
[2]; PUO rats, n=10, not significant
  Mean bladder weight: 0.88 ± 0.13 g
[2]; PUO rats, ns
  Micturition pressure (MP): 116.0±17.4 cmH2O
[2]; PUO rats, p<0.002
  Mean flow pressure (FP): 87.4±8.7 cmH2O
  Mean threshold pressure (ThP): 39.4±4.9 cmH2O
[2]; PUO rats, p<0.01
  Micturition interval (MI): 84 ± 10 s
[2]; PUO rats, p<0.02
  Micturition volume (MV): 0.43 ± 0.07 mL
  Residual volume (RV): 0.09 ± 0.05 mL
[2]; PUO rats, p<0.03
  Micturition frequency: 53±11 micturitions per hour
[2]; p<0.04
  PUO rats exhibiting non-voiding contractions (NVCs): 2 out of 10
